Here are results for 16 compounds from publication PMC6152134, “Synthesis and In Vitro Anticancer Activity of Novel Dehydroabietic Acid-Based Acylhydrazones” (Molecules : A Journal of Synthetic Chemistry and Natural …, 2017).

Bounds are passed on as bounds.

Data set [1] deals with CNE-2 (nasopharynx) human carcinoma cell line. Put plainly: MTT cytotoxicity assay, CNE-2 cells. Format: cell-based. The settings on record: Homo sapiens, 48 h exposure. On the procedure:
(§1) Compounds 4a–x were evaluated for their cytotoxic activity in vitro against the human cancer cell lines, CNE-2, HepG2, HeLa, and BEL-7402 by using a 3-(4,5-dimethylthiazol-2-yl)-2,5-diphenyl tetrazolium bromide (MTT) colorimetric assay. Cisplatin was included in the experiments as a positive control, and the IC50 of DHA is also presented to compare the anticancer activities. The calculated IC50 values were reported differently according to the different cancer cells.
(§2) The CNE-2, HepG2, HeLa, and BEL-7402 cell lines used in this work were all purchased from the Institute of Biochemistry and Cell Biology, China Academy of Sciences. All were supplemented with 10% heat-inactivated fetal bovine serum in a humidified atmosphere of 5% CO2/95% air at 37 °C. In order to investigate the potential of compounds 4, cisplatin, a commercial classical anticancer drug was used as a reference drug. CNE-2, HepG2, HeLa, and BEL-7402 cells were seeded into 96-well microculture plates and allowed to adhere for 24 h, respectively. After cells were exposed to compounds at concentrations from 100 to 0.1 μM for 48 h, medium was aspirated and replenished with complete medium. IC50 values was evaluated by MTT tetrazolium dye assay. All the tests were repeated in at least three independent experiments. The IC50 values of the compounds were calculated using SPSS Version 10 software (IBM, New York, NY, USA), which defined the IC50 value as the concentration required to inhibit cell growth by 50%.

For data set [2], the system named is BEL-7402 (liver) human carcinoma cell line. The data set is described as follows: MTT cytotoxicity assay, BEL-7402 cells. The settings on record: Homo sapiens, 48 h exposure. Format: cell-based. As to the method: as §1, §2
For orientation: Tetrazolium dyes change colour on reduction, which living cells bring about.

Data set [3] deals with HeLa (epithelial cervical) human carcinoma cell line. The data set is described as follows: MTT cytotoxicity assay, HeLa cells. The format is cell-based. The settings on record: 48 h exposure. As to the method:
as §1, §2

The subject of data set [4] is HepG2 (liver) human carcinoma cell line. Put plainly: MTT cytotoxicity assay, HepG2 cells. Format: cell-based. The settings on record: 48 h exposure. As to the method:
as §1, §2

Data set [5] deals with HL-7702 normal human liver cell line. Put plainly: MTT cytotoxicity assay, HL-7702 normal liver cells. The format is cell-based. The settings on record: L02, normal human liver cell HL-7702.
The subject of data set [6] is human promyelocytic leukemic cells (HL-60). The arrangement: method as in PMID 20884091. The settings on record: read-out: IC50 against HL-60; cited from earlier work.

What is called IC50 is the point on the concentration scale where inhibition reaches its midpoint. As a reminder, the melting point is the temperature of the solid-liquid transition.

`CC(C)c1ccc2c(c1)CCC1C(C)(C(=O)OCC(=O)NN=Cc3ccc([N+](=O)[O-])cc3)CCCC21C` (stereo not shown) [4j]: the melting point lay within 177.2 to 179.8 °C. This compound displayed an IC50 in data set [1] of 93.26 ± 0.52 µM. Also, the IC50 in data set [2] stood at 27.45 ± 0.17 µM. For the same compound, the IC50 in data set [3] (Homo sapiens, HeLa, 48 h) turned out to be 13.06 ± 0.08 µM. In data set [4] (Homo sapiens, HepG2, 48 h), the IC50 is 39.5 ± 0.82 µM. The compound further displayed a half-maximal inhibitory concentration (IC50) in data set [5] of over 100 µM.

The compound `CC(C)c1ccc2c(c1)CCC1C(C)(C(=O)OCC(=O)NN=Cc3ccccc3Br)CCCC21C` (stereo not shown) [4k, N’-(2-Bromobenzylidene)-2-(dehydroabietyloxy)acetohydrazide] yielded a melting point of 184.9 to 185.7 °C. In data set [1], this compound displayed an IC50 of 47.7 ± 0.23 µM. Moreover, 48.16 ± 0.32 µM corresponded to half-maximal inhibition in data set [2] (IC50). This compound also yielded an IC50 in data set [3] of 5.53 ± 0.04 µM. Further, the IC50 in data set [3] (Homo sapiens, HeLa, 48 h) is under 10 µM. In data set [4], the midpoint of inhibition, the IC50, lay at 8.47 ± 0.55 µM. Moreover, the IC50 in data set [4] (Homo sapiens, HepG2, 48 h) is under 10 µM. Besides, the IC50 in data set [5] was determined as 65.9 ± 1.48 µM.

Consider `CC(C)c1ccc2c(c1)CCC1C(C)(C(=O)OCC(=O)NN=Cc3cccc(Br)c3)CCCC21C` (stereo not shown) [4l], for which the melting point was 178.3 to 179.8 °C. Besides, in data set [1], the half-inhibitory concentration (IC50) worked out at 11.45 ± 0.11 µM. In data set [2], this compound returned an IC50 of 19.9 ± 0.27 µM. In data set [3] (Homo sapiens, HeLa, 48 h), this compound gave a concentration for half-maximal inhibition (IC50) of 25.14 ± 0.1 µM. The IC50 in data set [4] (Homo sapiens, HepG2, 48 h) turned out to be 35.1 ± 0.96 µM. The same compound showed an IC50 in data set [5] of 86.4 ± 3.12 µM.

In turn, `CC(C)c1ccc2c(c1)CCC1C(C)(C(=O)OCC(=O)NN=Cc3ccc(Br)cc3)CCCC21C` (stereo not shown) [4m] showed a melting point of 188.1 to 188.6 °C. In addition, half-maximal inhibition in data set [1] (IC50) was put at 89.66 ± 0.27 µM. Moreover, it took 23.1 ± 0.33 µM to reach half-maximal inhibition in data set [2] (IC50). Further, the IC50 in data set [3] (Homo sapiens, HeLa, 48 h) is 12.8 ± 0.15 µM. The compound also displayed an IC50 in data set [4] (Homo sapiens, HepG2, 48 h) of 9.94 ± 0.59 µM. In data set [5], this compound came in with an IC50 of over 100 µM.

For the compound `COc1ccccc1C=NNC(=O)COC(=O)C1(C)CCCC2(C)c3ccc(C(C)C)cc3CCC12` (stereo not shown) [4n], the melting point was 190.3 to 191.8 °C. The compound also registered an IC50 in data set [1] of 26.08 ± 0.05 µM. Also, half-maximal inhibition in data set [2] (IC50) was put at 23.8 ± 0.51 µM. In addition, the IC50 in data set [3] (Homo sapiens, HeLa, 48 h) stood at 45.13 ± 0.09 µM. The compound further showed a 50% inhibitory concentration (IC50) in data set [4] (Homo sapiens, HepG2, 48 h) of 50.1 ± 0.74 µM. It took 70.4 ± 2.23 µM to reach half-maximal inhibition in data set [5] (IC50).

Compound `COc1cccc(C=NNC(=O)COC(=O)C2(C)CCCC3(C)c4ccc(C(C)C)cc4CCC23)c1` (stereo not shown) [4o] showed a melting point of 136.7 to 137.9 °C. Further, 86.46 ± 0.13 µM corresponded to half-maximal inhibition in data set [1] (IC50). The compound further had a 50% inhibitory concentration (IC50) in data set [2] of 14.8 ± 0.38 µM. Half-maximal inhibition in data set [3] (Homo sapiens, HeLa, 48 h) (IC50) required 32.06 ± 0.21 µM. Besides, 51.3 ± 0.63 µM corresponded to half-maximal inhibition in data set [4] (Homo sapiens, HepG2, 48 h) (IC50). Moreover, in data set [5], the 50% inhibitory concentration (IC50) is over 100 µM.

Regarding `COc1ccc(C=NNC(=O)COC(=O)C2(C)CCCC3(C)c4ccc(C(C)C)cc4CCC23)cc1` (stereo not shown) [4p, N’-(4-Methoxybenzylidene)-2-(dehydroabietyloxy)acetohydrazide], the melting point was in the range of 174.8 to 175.5 °C. The compound also registered an IC50 in data set [1] of 56.98 ± 0.08 µM. In data set [2], it took 55.29 ± 0.44 µM to reach half-maximal inhibition (IC50). Besides, the concentration for half-maximal inhibition (IC50) in data set [3] (Homo sapiens, HeLa, 48 h) worked out at 34.33 ± 0.32 µM. The same compound showed an IC50 in data set [4] (Homo sapiens, HepG2, 48 h) of 48.59 ± 0.09 µM. This compound yielded an IC50 in data set [5] of 91.8 ± 1.57 µM.

In turn, `CC(C)c1ccc2c(c1)CCC1C(C)(C(=O)OCC(=O)NN=Cc3ccccc3F)CCCC21C` (stereo not shown) [4q, Dehydroabietic acid-based 2-fluorophenyl acylhydrazone] displayed a melting point of 130.2 to 130.5 °C. The compound further had a 50% inhibitory concentration (IC50) in data set [1] of 27.4 ± 0.72 µM. This compound also registered an IC50 in data set [2] of 22.8 ± 0.34 µM. In data set [3] (Homo sapiens, HeLa, 48 h), this compound gave a half-maximal inhibitory concentration (IC50) of 27.71 ± 0.14 µM. This compound registered an IC50 in data set [4] (Homo sapiens, HepG2, 48 h) of 93.76 ± 0.39 µM. In data set [5], this compound returned an IC50 of over 100 µM.

`CC(C)c1ccc2c(c1)CCC1C(C)(C(=O)OCC(=O)NN=Cc3cccc(F)c3)CCCC21C` (stereo not shown) [4r] gave a melting point of 166 to 167.3 °C. Moreover, half-maximal inhibition in data set [1] (IC50) required 51 ± 0.94 µM. This compound also showed an IC50 in data set [2] of 25.9 ± 0.53 µM. Further, the IC50 in data set [3] (Homo sapiens, HeLa, 48 h) is 12.8 ± 0.13 µM. Moreover, the half-inhibitory concentration (IC50) in data set [4] (Homo sapiens, HepG2, 48 h) amounted to 31.6 ± 0.47 µM. In data set [5], 68.6 ± 1.25 µM corresponded to half-maximal inhibition (IC50).

`CC(C)c1ccc2c(c1)CCC1C(C)(C(=O)OCC(=O)NN=Cc3ccc(F)cc3)CCCC21C` (stereo not shown) [4s] showed a melting point of 169.2 to 170.5 °C. This compound also came in with an IC50 in data set [1] of 49.81 ± 0.49 µM. In data set [2], this compound yielded an IC50 of 25.22 ± 0.22 µM. In data set [3] (Homo sapiens, HeLa, 48 h), this compound registered a 50% inhibitory concentration (IC50) of 28.79 ± 0.24 µM. This compound also came in with a half-inhibitory concentration (IC50) in data set [4] (Homo sapiens, HepG2, 48 h) of 90.08 ± 0.33 µM. Moreover, the IC50 in data set [5] is over 100 µM.

Take `CC(C)c1ccc2c(c1)CCC1C(C)(C(=O)OCC(=O)NN=Cc3cccc(F)c3F)CCCC21C` (stereo not shown) [4t]: the melting point lay in the range of 150.2 to 153.5 °C. Moreover, in data set [1], the IC50 was found to be 33.3 ± 0.56 µM. In data set [2], this compound had an IC50 of 18.8 ± 0.59 µM. Also, in data set [3] (Homo sapiens, HeLa, 48 h), it took 11.1 ± 0.15 µM to reach half-maximal inhibition (IC50). In data set [4] (Homo sapiens, HepG2, 48 h), this compound had a half-maximal inhibitory concentration (IC50) of 22.89 ± 0.04 µM. The IC50 in data set [5] worked out at 72 ± 1.66 µM.

In turn, `CC(C)c1ccc2c(c1)CCC1C(C)(C(=O)OCC(=O)NN=Cc3ccc(F)cc3F)CCCC21C` (stereo not shown) [4u, N’-(2,4-Difluorobenzylidene)-2-(dehydroabietyloxy)acetohydrazide] gave a melting point of 181.9 to 184.5 °C. This compound came in with an IC50 in data set [1] of 32.83 ± 0.16 µM. The IC50 in data set [2] turned out to be 18.6 ± 0.37 µM. In data set [3] (Homo sapiens, HeLa, 48 h), the half-inhibitory concentration (IC50) was 5.86 ± 0.09 µM. The compound further came in with an IC50 in data set [4] (Homo sapiens, HepG2, 48 h) of 25.4 ± 0.54 µM. Moreover, inhibition in data set [5] was half-maximal at 55.8 ± 1.38 µM (IC50).

Take `CC(C)c1ccc2c(c1)CCC1C(C)(C(=O)OCC(=O)NN=Cc3c(F)cccc3F)CCCC21C` (stereo not shown) [4v]: the melting point lay in the range of 107.3 to 110 °C. The compound also had an IC50 in data set [1] of 26.8 ± 0.46 µM. Further, in data set [2], half-maximal inhibition (IC50) was put at 20.5 ± 0.53 µM. This compound displayed a half-maximal inhibitory concentration (IC50) in data set [3] (Homo sapiens, HeLa, 48 h) of 15 ± 0.21 µM. Besides, the midpoint of inhibition in data set [4] (Homo sapiens, HepG2, 48 h), the IC50, lay at 16.9 ± 0.18 µM. The compound further registered an IC50 in data set [5] of 44.6 ± 2.02 µM.

Compound `CC(C)c1ccc2c(c1)CCC1C(C)(C(=O)OCC(=O)NN=Cc3cc(F)cc(F)c3)CCCC21C` (stereo not shown) [4w] returned a melting point of 182.6 to 186.6 °C. This compound also returned a concentration for half-maximal inhibition (IC50) in data set [1] of 15.4 ± 0.21 µM. Further, in data set [2], it took 14.5 ± 0.22 µM to reach half-maximal inhibition (IC50). This compound returned a concentration for half-maximal inhibition (IC50) in data set [3] (Homo sapiens, HeLa, 48 h) of 2.21 ± 0.04 µM. Also, the IC50 in data set [4] (Homo sapiens, HepG2, 48 h) came to 12.07 ± 0.07 µM. This compound yielded an IC50 in data set [5] of 66.1 ± 1.84 µM.

Turning to `O=C(N/N=C/c1ccccc1O)c1ccc(-c2ccc(F)cc2F)o1` [(E)-2-hydroxybenzaldehyde-5-(2,4-difluorophenyl)-2-furoyl hydrazone], in data set [6], the IC50 is 16.4 µM.

On to `COc1cccc2c1C(=O)c1c(O)c3c(c(O)c1C2=O)C[C@@](O)(C(=O)CO)C[C@@H]3O[C@H]1C[C@H](N)[C@H](O)[C@H](C)O1` [doxorubicin], for which, in data set [6], the IC50 was 53.3 µM.
